Reference: ChEMBL document CHEMBL1155854, “Conformationally constrained farnesoid X receptor (FXR) agonists: Naphthoic acid-based analogs of GW 4064” (Bioorg Med Chem Lett, 2008)
In brackets after ≈: the same amount, converted by molar mass.

Experiments:
Bile acid receptor = target: T1, Bile acid receptor (Homo sapiens, UniProt Q96RI1); experiment: Agonist activity at FXR assessed as receptor-SRC-1 peptide interaction by FRET assay; format: functional
T1 sequence (Q96RI1 whole entry): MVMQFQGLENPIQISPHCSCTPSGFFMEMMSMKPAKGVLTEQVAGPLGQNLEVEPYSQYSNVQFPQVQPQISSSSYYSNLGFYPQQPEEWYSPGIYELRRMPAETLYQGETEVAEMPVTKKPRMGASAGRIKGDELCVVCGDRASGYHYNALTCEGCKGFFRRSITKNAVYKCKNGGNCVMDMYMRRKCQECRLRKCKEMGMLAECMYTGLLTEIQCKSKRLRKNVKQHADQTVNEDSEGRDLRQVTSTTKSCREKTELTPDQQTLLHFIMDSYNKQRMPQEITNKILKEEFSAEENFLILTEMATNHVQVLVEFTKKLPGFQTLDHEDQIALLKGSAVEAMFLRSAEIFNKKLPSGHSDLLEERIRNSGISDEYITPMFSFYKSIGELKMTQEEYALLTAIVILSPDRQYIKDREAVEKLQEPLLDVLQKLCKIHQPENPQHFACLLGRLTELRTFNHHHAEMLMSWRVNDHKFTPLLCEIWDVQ

[1] = Solubility in fasted state-simulated intestinal fluid at pH 6.5; format: physicochemical; settings: simulated gi fluid
[2] = Selectivity for FXR over PXR
PXR = target: T2, PXR (Homo sapiens, UniProt O75469); experiment: Agonist activity at PXR by SPA assay relative to GW-4064; format: functional; settings: read-out: %max
T2 sequence (O75469 whole entry): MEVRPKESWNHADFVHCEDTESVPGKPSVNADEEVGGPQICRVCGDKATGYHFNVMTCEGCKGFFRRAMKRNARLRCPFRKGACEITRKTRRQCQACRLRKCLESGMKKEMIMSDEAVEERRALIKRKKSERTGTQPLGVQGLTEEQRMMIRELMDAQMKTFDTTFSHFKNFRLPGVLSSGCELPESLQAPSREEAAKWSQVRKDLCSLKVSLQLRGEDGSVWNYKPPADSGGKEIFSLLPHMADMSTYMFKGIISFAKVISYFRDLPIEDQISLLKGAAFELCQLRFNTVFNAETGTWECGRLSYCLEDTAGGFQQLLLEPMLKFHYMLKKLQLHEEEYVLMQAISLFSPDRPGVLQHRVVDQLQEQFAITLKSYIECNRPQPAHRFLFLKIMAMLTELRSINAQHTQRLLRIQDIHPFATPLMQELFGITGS

[3] = Oral bioavailability in cynomolgus monkey at 5 mg/kg; format: ADME, organism-based, Macaca fascicularis; settings: in vivo
[4] = Apparent permeability in MDCK cells; format: ADME, cell-based, Canis lupus familiaris; settings: dog
Cytochrome P450 2C9 = Cytochrome P450 2C9 (Homo sapiens, UniProt P11712); experiment: Inhibition of CYP2C9 in pooled human liver microsome; format: ADME
Cytochrome P450 2C9, sequence (P11712 whole entry): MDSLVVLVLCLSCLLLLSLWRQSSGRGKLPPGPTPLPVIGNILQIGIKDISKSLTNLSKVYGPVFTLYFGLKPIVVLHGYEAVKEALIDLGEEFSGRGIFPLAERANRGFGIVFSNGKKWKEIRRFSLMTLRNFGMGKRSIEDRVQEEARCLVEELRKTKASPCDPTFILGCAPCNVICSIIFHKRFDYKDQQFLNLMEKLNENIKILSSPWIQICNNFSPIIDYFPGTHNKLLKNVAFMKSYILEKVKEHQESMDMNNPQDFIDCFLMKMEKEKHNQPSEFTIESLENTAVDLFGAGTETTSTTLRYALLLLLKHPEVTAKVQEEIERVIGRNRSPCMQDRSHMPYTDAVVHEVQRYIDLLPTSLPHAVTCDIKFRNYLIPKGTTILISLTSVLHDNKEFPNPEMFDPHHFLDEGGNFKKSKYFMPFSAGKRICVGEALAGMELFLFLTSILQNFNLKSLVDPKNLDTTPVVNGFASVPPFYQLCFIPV

[5] = target: T3, Oxysterols receptor LXR-beta (Homo sapiens, UniProt P55055); experiment: Agonist activity at LXRbeta by transient transfection assay; format: functional
T3 sequence (P55055 whole entry): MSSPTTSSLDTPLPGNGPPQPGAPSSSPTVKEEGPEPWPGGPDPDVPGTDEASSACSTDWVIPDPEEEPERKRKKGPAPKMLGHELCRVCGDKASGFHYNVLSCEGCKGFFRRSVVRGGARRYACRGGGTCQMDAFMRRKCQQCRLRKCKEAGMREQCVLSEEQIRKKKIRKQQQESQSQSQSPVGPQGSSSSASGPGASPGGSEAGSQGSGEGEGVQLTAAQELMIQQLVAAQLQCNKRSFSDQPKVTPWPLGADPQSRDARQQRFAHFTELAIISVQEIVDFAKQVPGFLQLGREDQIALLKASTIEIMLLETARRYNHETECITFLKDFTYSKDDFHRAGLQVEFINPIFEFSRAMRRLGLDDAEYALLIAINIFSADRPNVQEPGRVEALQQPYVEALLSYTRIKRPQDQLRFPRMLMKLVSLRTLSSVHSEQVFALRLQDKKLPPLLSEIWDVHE

[6] = target: T4, Oxysterols receptor LXR-alpha (Homo sapiens, UniProt Q13133); experiment: Agonist activity at LXRalpha assessed as receptor-coactivator peptide interaction by FRET assay; format: functional
T4 sequence (Q13133 whole entry): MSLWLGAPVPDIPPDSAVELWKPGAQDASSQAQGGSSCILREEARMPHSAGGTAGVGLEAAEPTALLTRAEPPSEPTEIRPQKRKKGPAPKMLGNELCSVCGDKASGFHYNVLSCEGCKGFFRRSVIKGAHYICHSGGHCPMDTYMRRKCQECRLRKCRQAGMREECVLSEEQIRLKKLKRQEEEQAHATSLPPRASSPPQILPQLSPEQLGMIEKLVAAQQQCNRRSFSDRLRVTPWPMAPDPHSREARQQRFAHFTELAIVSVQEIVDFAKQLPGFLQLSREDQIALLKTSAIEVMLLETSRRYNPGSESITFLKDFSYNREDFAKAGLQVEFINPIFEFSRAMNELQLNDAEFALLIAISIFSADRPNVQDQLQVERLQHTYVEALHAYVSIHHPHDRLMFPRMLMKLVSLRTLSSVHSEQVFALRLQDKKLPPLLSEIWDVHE

[7] = Volume of distribution at steady state in iv dosed rat; format: ADME, organism-based; settings: in vivo, read-out: Vdss
[8] = target: Nuclear receptor subfamily 5 group A member 2 (Homo sapiens, UniProt O00482); experiment: Agonist activity at LRH assessed as receptor-coactivator peptide interaction by FRET assay; format: functional
Nuclear receptor subfamily 5 group A member 2, sequence (O00482 whole entry): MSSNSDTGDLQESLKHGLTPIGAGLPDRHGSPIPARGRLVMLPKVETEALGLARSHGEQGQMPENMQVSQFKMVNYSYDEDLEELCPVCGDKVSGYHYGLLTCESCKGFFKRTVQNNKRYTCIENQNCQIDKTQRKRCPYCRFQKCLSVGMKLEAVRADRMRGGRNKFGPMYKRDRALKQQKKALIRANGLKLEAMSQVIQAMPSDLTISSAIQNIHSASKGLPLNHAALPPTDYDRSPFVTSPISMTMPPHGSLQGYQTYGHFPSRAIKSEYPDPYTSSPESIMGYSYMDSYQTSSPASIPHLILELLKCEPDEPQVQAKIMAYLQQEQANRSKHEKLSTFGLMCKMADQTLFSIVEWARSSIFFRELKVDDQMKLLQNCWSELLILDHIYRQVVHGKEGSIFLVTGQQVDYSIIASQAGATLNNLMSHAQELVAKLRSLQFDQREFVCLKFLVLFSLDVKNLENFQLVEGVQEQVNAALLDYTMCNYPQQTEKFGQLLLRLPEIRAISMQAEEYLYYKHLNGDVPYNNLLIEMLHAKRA

Estrogen receptor beta = Estrogen receptor beta (Homo sapiens, UniProt Q92731); experiment: Agonist activity at ERbeta by fluorescence polarization assay; format: functional
Estrogen receptor beta, sequence (Q92731 whole entry): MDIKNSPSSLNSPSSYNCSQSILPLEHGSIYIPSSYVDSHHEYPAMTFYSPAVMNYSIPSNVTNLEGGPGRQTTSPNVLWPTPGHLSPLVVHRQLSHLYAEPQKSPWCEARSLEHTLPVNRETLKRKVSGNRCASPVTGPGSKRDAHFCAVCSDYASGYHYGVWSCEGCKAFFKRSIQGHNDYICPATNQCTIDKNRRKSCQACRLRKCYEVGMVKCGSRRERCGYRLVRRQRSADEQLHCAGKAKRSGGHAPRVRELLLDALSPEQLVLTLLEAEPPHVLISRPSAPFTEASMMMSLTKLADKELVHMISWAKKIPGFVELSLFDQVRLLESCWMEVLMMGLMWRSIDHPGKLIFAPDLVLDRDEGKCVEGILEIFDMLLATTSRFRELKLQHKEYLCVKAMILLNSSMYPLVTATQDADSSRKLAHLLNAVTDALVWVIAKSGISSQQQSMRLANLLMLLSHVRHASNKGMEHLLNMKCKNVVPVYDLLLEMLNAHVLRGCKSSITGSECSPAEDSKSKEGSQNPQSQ

[9] = Half life in iv dosed Beagle dog; format: ADME, organism-based, Canis lupus familiaris; settings: in vivo

EC50 (Bile acid receptor): 0.087 µM
solubility [1]: 1 µg/mL (≈ 1.88 µM)
Selectivity ratio [2]: 35
Emax (PXR): 63%
bioavailability [3]: 34%
Papp [4]: 19 ×10⁻⁶ cm/s
IC50 (Cytochrome P450 2C9): 17 µM
XC50 [5]: > 20 µM
XC50 [6]: > 20 µM
Vd [7]: 1 L/kg
XC50 [8]: > 10 µM
XC50 (Estrogen receptor beta): > 20 µM
half-life [9]: 4.17 h
SMILES: CC(C)c1onc(-c2c(Cl)cccc2Cl)c1COc1ccc(-c2ccc3c(C(=O)O)cccc3c2)cc1
